From patent publication US7271158B2, “Treatment of rumen acidosis with α-amylase inhibitors” (Pfizer Inc., priority 2000, dated 2007)

Columns and labels:
[1] = system: bacterial glucosidase activity from bovine rumen fluid cell suspension; assay: Rumen fluid glucosidase assay; type: biochemical, bovine rumen bacteria; settings: rumen fluid glucosidase screen, maltose substrate
Procedure: Rumen Fluid Glucosidase Assay Protocol This assay is used to determine IC50 values for inhibitors of bacterial glucosidase activity from bovine rumen fluid cell suspension (RFCS) using a colorimetric assay. The assay measures conversion of maltose into glucose. Rumen fluid cells are incubated with maltose in the presence of inhibitors, and the amount of glucose produced is assessed using a red colourimetric endpoint. The higher the level of inhibition the lower the glucose produced and the less red colour produced. The plates are read at 450 nm. Main reaction: • Maltose+glucosidase→glucose Glucose assay • Glucose+ATP→[…] and ADP (Hexokinase and Mg^2+) • […] and NADP→6-phosphogluconate (6-PG) and NADPH • NADPH+phenazine methosulfate ([…] (iodonitrotetrazolium chloride)→[…] is deep red coloured. […] The rumen fluid was collected into pre-warmed vacuum flasks. It was then filtered through a double layer of absorbent gauze (Absorbent gauze BP, GAUZ 4 from Robert Bailey plc, Stockport) to remove hay and feed particles. The liquid was centrifuged at a relative centrifugal force of 650 for 15 minutes to remove food particles and protozoa. The supernatant was decanted into fresh tubes and centrifuged at a relative centrifugal force of 23,300 for 60 minutes. The supernatant and the loose top layer of the pellet were discarded. The pellet was resuspended in PBS at 1:8 of original volume i.e. 50 ml of PBS for the pellet from 400 ml of rumen fluid, and frozen at -20° C. When required for use the cells were thawed by standing the tube in cold water, and then diluted to […] of cells/well (45 μl/ml). Test compounds or controls were dispensed into the 96-well assay plate at 2 μl/well, followed by 50 μl per well of 10 mM maltose and 50 μl/well of rumen fluid cell suspension. The plate was incubated at 37° C. for 1 hour. Sigma glucose detection kit […] was reconstituted by addition of 17 ml of Millipore water and 4 ml of colour reagent to each vial. 100 μl of this solution was added per well and the plate returned to the 37° C. incubator for 45 minutes. The plate was then read at 450 nm. Active compounds cause a reduction in the optical density readings when compared to the no-inhibitor control wells.

[2] = system: rumen fluid fermentation (RUSITEC chronic acidosis model); assay: RUSITEC rumen simulation, chronic acidosis model: Example 8 and acarbose; type: cell-based, cow
Procedure: RUSITEC Result using Example 8 and Acarbose
Daily maintenance procedures as previously described for Acarbose.
Rumen fluid donor cow—Fed GH313Pellets plus barley straw.
Daily Feed—30 g GH313 pellets plus 2.5 g chopped barley straw.
Acarbose: 1 tablet added to each bag to give 100 mg/vessel/d
Example 8: Eight×57 mg pre-weighed samples stored in fridge in […]. On the day before the feed bags were to be placed in RUSITEC, a 57 mg sample was dissolved in 2.28 ml buffer (25 mg/ml). 0.21 ml of this solution was added to 1.9 ml buffer to give a 2.5 mg/ml solution. 1 ml of each solution was added to a prepared feed bag to give 25 and 2.5 mg/vessel/d. and dried overnight at room temperature.

E. faecalis = assay: Minimum inhibitory concentrations in aerobes (agar dilution)
S. aureus = assay: as above

Structure (SMILES): CC1OC(OC2C(CO)OC(OC3C(CO)OC(O)C(O)C3O)C(O)C2O)C(O)C(O)C1NC1C=C(CO)C(O)C(O)C1O (stereo not shown) [Acarbose, acarbose]
- IC50 [1]: 1080 nM
- increase in mean daily pH ([2]; 0.2 mM): 0.7 units
- proportional increase in butyrate production ([2]; 100 mg per vessel per day, treatment period vs control period (no treatment: 1%)): 113%
- change in total VFA production ([2]; 100 mg per vessel per day, vs preceding control period (no treatment: −11%)): −15%
- MIC (E. faecalis; E. faecalis 1.1.16): >128 µg/mL
- MIC (E. faecalis; E. faecalis 1.1.4): >128 µg/mL
- MIC (E. faecalis; E. faecalis 1.10.4): >128 µg/mL
- MIC (E. faecalis; E. faecalis 1.3.13): >128 µg/mL
- MIC (E. faecalis; E. faecalis 1.4.12): >128 µg/mL
- MIC (E. faecalis; E. faecalis 1.6.6): >128 µg/mL
- MIC (E. faecalis; E. faecalis 1.9.5): >128 µg/mL
- MIC (E. faecalis; E. faecalis 28.5.7): >128 µg/mL
- MIC (E. faecalis; E. faecalis 28.6.9): >128 µg/mL
- MIC (E. faecalis; Enterococcus faecalis): > 128 µg/mL
- MIC (S. aureus; S. aureus 3.4): >128 µg/mL
- MIC (S. aureus; S. aureus 3.5): >128 µg/mL
- MIC (S. aureus; S. aureus 5.1): >128 µg/mL
- MIC (S. aureus; S. aureus 6.1): >128 µg/mL
- MIC (S. aureus; S. aureus 8.2): >128 µg/mL
- MIC (S. aureus; S. aureus 8.3): >128 µg/mL
- MIC (S. aureus; S. aureus 9.3): >128 µg/mL
- MIC (S. aureus; S. aureus 10.3): >128 µg/mL
- MIC (S. aureus; S. aureus 10.4): >128 µg/mL
- MIC (S. aureus; Staphylococcus aureus): > 128 µg/mL
- MIC (S. aureus; Staphylococcus aureus, NCTC6571): > 128 µg/mL
